Test systems include OVCAR-5 ovarian; SR leukemia; LOX IMVI melanoma; HCC-2998 colon; PC-3 prostate; SN12C renal; SK-MEL-28 melanoma; HL-60(TB) leukemia; T-47D breast.
What all share (assay): inhibition of tumour cell growth, NCI panel, 48 h

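In this assay, cells in 96-well plates receive the compound at five concentrations for 48 hours. Endpoints are linearly interpolated between the surrounding concentrations. Definition used: TGI = concentration required for complete inhibition of growth.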

On to `CC(=O)OC1[C@@H](OC(C)=O)CN(OCc2ccccc2)C[C@H]1OC(C)=O` (some centres not stated), for which the TGI in the assay on OVCAR-5 ovarian, with SR leukemia, in the assay on LOX IMVI melanoma, in the assay with HCC-2998 colon, in the assay on PC-3 prostate and with SN12C renal was more than 100 µM each time. Also, the TGI in the assay on SK-MEL-28 melanoma, in the assay with HL-60(TB) leukemia and with T-47D breast was more than 100 µM in each case.
Turning to `COc1ccc(-c2cc(-c3ccccc3)nc3c2CC(=O)Nc2ccccc2-3)cc1OC`, the TGI with OVCAR-5 ovarian, in the assay on SR leukemia, in the assay on LOX IMVI melanoma, in the assay with HCC-2998 colon, in the assay on PC-3 prostate and in the assay with SN12C renal was more than 100 µM in each case. Further, the TGI in the assay with SK-MEL-28 melanoma and in the assay on T-47D breast was more than 100 µM throughout.
With `COC(=O)c1ccc(C)cc1CC1Cc2c(C)cccc2C1=O` (configuration not stated), the TGI was more than 100 µM in the assay with OVCAR-5 ovarian; more than 100 µM in the assay on SR leukemia; 32.2 µM in the assay on LOX IMVI melanoma; 25.2 µM with HCC-2998 colon; more than 34.6 µM in the assay with PC-3 prostate; 28.2 µM with SN12C renal. The figures for the TGI in the assay on SK-MEL-28 melanoma, in the assay on HL-60(TB) leukemia and in the assay with T-47D breast were 84.7 µM, 24.2 µM and more than 100 µM, respectively.
Consider `COCn1c(C)c(C)c2c(=O)oc(C)nc21`, for which the TGI in the assay with OVCAR-5 ovarian, in the assay with SR leukemia, in the assay with LOX IMVI melanoma, in the assay on HCC-2998 colon, in the assay on PC-3 prostate and in the assay on SN12C renal was more than 100 µM each time. In addition, the TGI in the assay on SK-MEL-28 melanoma, with HL-60(TB) leukemia and in the assay with T-47D breast was more than 100 µM throughout.
Take `COC(=O)C1=COc2c(n(C)c3ccccc23)-c2ccccc21`: the TGI in the assay with OVCAR-5 ovarian, with SR leukemia, with LOX IMVI melanoma, in the assay on PC-3 prostate, in the assay with SN12C renal and in the assay with HL-60(TB) leukemia was more than 100 µM in each case. Further, the TGI in the assay with T-47D breast was more than 100 µM.
As for `CC(=O)OCCOCCN1CCN(c2c(O)c3c(c(O)c2Cl)C(=O)C=CC3=O)CC1`, the TGI is 2.97 µM in the assay with OVCAR-5 ovarian; 4.54 µM in the assay on SR leukemia; 1.66 µM in the assay with LOX IMVI melanoma; 4.31 µM in the assay with HCC-2998 colon; 3.28 µM in the assay on PC-3 prostate; 1.77 µM in the assay with SN12C renal. Besides, the TGI came to 2.22 µM in the assay on SK-MEL-28 melanoma, 0.238 µM in the assay with HL-60(TB) leukemia and 2.77 µM in the assay on T-47D breast.
Take `Cc1ccc([N+](=O)[O-])cc1S(=O)(=O)Nc1ccc(C2=NN(S(=O)(=O)c3cc([N+](=O)[O-])ccc3C)C(c3ccco3)C2)cc1` (configuration not stated): the TGI with OVCAR-5 ovarian, in the assay with SR leukemia, with LOX IMVI melanoma, with PC-3 prostate, in the assay on SN12C renal and in the assay with SK-MEL-28 melanoma was more than 100 µM throughout. Moreover, the TGI in the assay on HL-60(TB) leukemia worked out at 98.2 µM; with T-47D breast, 92.9 µM.
In the case of `C[N+](C)(C)C(C1=CCCC1=O)c1ccccc1` (configuration not stated), the TGI with OVCAR-5 ovarian is more than 100 µM; in the assay on SR leukemia it was 44.5 µM; with LOX IMVI melanoma, 38.3 µM; with PC-3 prostate, more than 100 µM; with SN12C renal, 44 µM; in the assay on SK-MEL-28 melanoma, more than 100 µM. For the same compound, the TGI is 66.5 µM with HL-60(TB) leukemia and more than 100 µM in the assay on T-47D breast.
With `Nc1ccc(OCCCc2c(-c3ccccc3)nc(N)[nH]c2=O)cc1`, the TGI with OVCAR-5 ovarian, with SR leukemia, with LOX IMVI melanoma, with HCC-2998 colon, with PC-3 prostate and in the assay on SN12C renal was more than 100 µM each time. Further, the TGI is more than 100 µM in the assay on SK-MEL-28 melanoma, more than 100 µM with HL-60(TB) leukemia and 81.2 µM in the assay on T-47D breast.
`CC(=O)C1=C(C)N(c2ccccc2)C2(O)C=CC(=O)C3=C(O)c4ccccc4C(=O)C312` (configuration not stated): the TGI in the assay with OVCAR-5 ovarian is 39.3 µM; in the assay on SR leukemia, more than 100 µM; in the assay on LOX IMVI melanoma, 83 µM; with HCC-2998 colon it was 25.4 µM; in the assay with PC-3 prostate, 41.5 µM; in the assay with SN12C renal, 30.3 µM. In addition, the TGI amounted to 52.2 µM in the assay with SK-MEL-28 melanoma, 74.1 µM in the assay with HL-60(TB) leukemia and 76.8 µM with T-47D breast.
Consider `O=c1[nH]c(=O)n2n1C1C=CC2CC1`, for which the TGI in the assay on OVCAR-5 ovarian, in the assay on SR leukemia, in the assay on LOX IMVI melanoma, in the assay on PC-3 prostate, in the assay with SN12C renal and in the assay on SK-MEL-28 melanoma was more than 100 µM in each case. Besides, the TGI in the assay on HL-60(TB) leukemia and in the assay with T-47D breast was more than 100 µM in each case.
For the compound `CN(C)Cc1cc(C(=O)/C=C/c2ccc(F)cc2)cc(CN(C)C)c1O`, the TGI with OVCAR-5 ovarian is more than 100 µM; in the assay with SR leukemia, 71.4 µM; with LOX IMVI melanoma it was 20.7 µM; with PC-3 prostate it was more than 100 µM; in the assay on SN12C renal, more than 100 µM; with SK-MEL-28 melanoma, more than 100 µM. For the same compound, the results for the TGI in the assay on HL-60(TB) leukemia and with T-47D breast were 35.4 µM and 46.3 µM, respectively.
For the compound `O=C(CCc1ccc(O)cc1)NCCCNC(=O)CCc1ccc(O)cc1`, the TGI with OVCAR-5 ovarian, in the assay on SR leukemia, in the assay with LOX IMVI melanoma, in the assay with HCC-2998 colon, in the assay on PC-3 prostate and with SN12C renal was more than 100 µM throughout. Moreover, the TGI in the assay on SK-MEL-28 melanoma and in the assay on T-47D breast was more than 100 µM each time.
On to `Nc1c2c(nc3ccccc13)CCCc1ccccc1-2`, for which the TGI is 34.6 µM in the assay with OVCAR-5 ovarian; more than 100 µM in the assay with SR leukemia; 22.1 µM in the assay with LOX IMVI melanoma; 4.61 µM in the assay with HCC-2998 colon; 40.5 µM in the assay on PC-3 prostate; 39.5 µM with SN12C renal. Also, the TGI came to 25 µM in the assay with SK-MEL-28 melanoma, 21.4 µM with HL-60(TB) leukemia and 37.5 µM in the assay on T-47D breast.
With `C=CCn1c(-c2ccc(Cl)cc2Cl)csc1=Nc1c(C)n(C)n(-c2ccccc2)c1=O`, the TGI in the assay with OVCAR-5 ovarian is 31.1 µM; in the assay with SR leukemia it was 21.9 µM; in the assay on LOX IMVI melanoma, 23.9 µM; in the assay on HCC-2998 colon, 29.1 µM; with PC-3 prostate it was 20.6 µM; in the assay on SN12C renal it was 27.5 µM. Also, the TGI was found to be 26.7 µM in the assay on SK-MEL-28 melanoma, 25.8 µM in the assay on HL-60(TB) leukemia and 16.6 µM in the assay with T-47D breast.

These data come from PubChem BioAssay (NCI).
